Data published in ChEMBL document CHEMBL1201862, “PubChem BioAssay data set” (2004).
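Step 1: Grow cells in 96-well plates. Step 2: Expose to compound for 48 hours at 5 concentrations. Step 3: Interpolate endpoints linearly; if unreached, use highest concentration. GI50: concentration for 50% inhibition of growth.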 Active and inactive are the calls of the source. Rule as the data show it: active = GI50 up to about 1.1 µM and inactive = higher.

Tests used:
Assay in all cases: DTP human tumour cell line panel, 48 h
A549 = tested on: A549
UACC-62 = tested on: UACC-62
MOLT-4 = tested on: MOLT-4
NCI-H23 = tested on: NCI-H23
SN12C = tested on: SN12C
COLO 205 = tested on: COLO 205
MDA-MB-231 = tested on: MDA-MB-231
T47D = tested on: T47D
A498 = tested on: A498
NCI/ADR-RES = tested on: NCI/ADR-RES
HCC 2998 = tested on: HCC 2998
SK-MEL-5 = tested on: SK-MEL-5
HOP-62 = tested on: HOP-62
NCI-H460 = tested on: NCI-H460
SW-620 = tested on: SW-620
SK-OV-3 = tested on: SK-OV-3
SNB-75 = tested on: SNB-75
SK-MEL-28 = tested on: SK-MEL-28
RXF 393 = tested on: RXF 393
RPMI-8226 = tested on: RPMI-8226

Measured: GI50

CN(C)CCNC(=O)c1cccc(NC(=O)c2ccccc2)c1[N+](=O)[O-]
inactive: A549 > 100 µM | UACC-62 > 100 µM | MOLT-4 > 100 µM | NCI-H23 > 100 µM | SN12C > 100 µM | COLO 205 8.65 µM | MDA-MB-231 > 100 µM | T47D > 100 µM | A498 > 100 µM | NCI/ADR-RES > 100 µM | HCC 2998 > 100 µM | SK-MEL-5 77.1 µM | HOP-62 > 100 µM | NCI-H460 93.5 µM | SW-620 > 100 µM | SK-OV-3 > 100 µM | SNB-75 36 µM | SK-MEL-28 > 100 µM

C[C@]12CCC3c4ccc(O)cc4CC[C@H]3C1CC(=O)N(N)C2=O (some centres not stated)
inactive: A549 > 100 µM | UACC-62 > 100 µM | MOLT-4 > 100 µM | NCI-H23 > 100 µM | SN12C > 100 µM | COLO 205 > 100 µM | MDA-MB-231 > 100 µM | T47D > 100 µM | A498 > 100 µM | HCC 2998 > 100 µM | SK-MEL-5 > 100 µM | HOP-62 > 100 µM | NCI-H460 > 100 µM | SW-620 > 100 µM | SK-OV-3 > 100 µM | RXF 393 > 100 µM | SNB-75 > 100 µM | SK-MEL-28 > 100 µM

COC(=O)C1(Cc2ccc3c(c2)CCC3)Cc2ccccc2C1
inactive: A549 32.5 µM | UACC-62 36.1 µM | MOLT-4 6.73 µM | NCI-H23 34.7 µM | SN12C 30.1 µM | COLO 205 25 µM | MDA-MB-231 35.1 µM | T47D 24.6 µM | A498 32.8 µM | NCI/ADR-RES 44.1 µM | HCC 2998 32 µM | HOP-62 43.6 µM | NCI-H460 32.9 µM | RPMI-8226 17.9 µM | SW-620 21.9 µM | SK-OV-3 29.7 µM | SNB-75 55.7 µM | SK-MEL-28 74.5 µM

CN1N(c2ccccc2)C(=O)C2=NC=C(C(=O)c3ccccc3)C(=N)C21C (configuration not stated)
inactive: A549 > 100 µM | UACC-62 > 100 µM | MOLT-4 > 100 µM | NCI-H23 > 100 µM | SN12C > 100 µM | COLO 205 > 100 µM | MDA-MB-231 > 100 µM | T47D > 100 µM | A498 > 100 µM | HCC 2998 > 100 µM | SK-MEL-5 > 100 µM | HOP-62 > 100 µM | NCI-H460 > 100 µM | RPMI-8226 > 100 µM | SW-620 > 100 µM | SK-OV-3 > 100 µM | RXF 393 > 100 µM | SK-MEL-28 > 100 µM
